Earlier results in publication PMC7310027, “PET imaging of soluble epoxide hydrolase in non-human primate brain with [^18F]FNDP” (EJNMMI Research, 2020).

Conditions: cited from earlier work

CC(=O)N1CCC(NC(=O)NC23CC4CC(CC(C4)C2)C3)CC1 [AR-9281, 1-(1-Acetyl-piperidin-4-yl)-3-adamantan-1-yl-urea]
BBB permeability: BBB-permeable
